Consider three compounds from PMC8156256, “Use of Half-Generation PAMAM Dendrimers (G0.5–G3.5) with Carboxylate End-Groups to Improve the DACHPtCl2 and 5-FU Efficacy as Anticancer Drugs” (Molecules, 2021).

By IC50 is commonly meant the point on the concentration scale where inhibition reaches its midpoint.

Read-outs that look alike come from different tables or passages of the source.

Data set [1] has as its system A2780CisR cisplatin-resistant ovarian cancer cells. The experiment in a line: MTT cytotoxicity assay, A2780cisR. In kind it is cell-based, human. The following applies: for IC50: MTT, 72 h, for 5-FU loaded systems MW includes the estimated number of 5-FU molecules, read-out: A2780cisR IC50 ± SD; for Resistance Factor (Rf): IC50 A2780CisR / IC50 A2780. How it is done:
(§1) Several human cell lines were used in the cytotoxicity evaluation studies, namely: ovarian cancer cells (A2780), cisplatin-resistant ovarian cancer cells (A2780CisR), breast cancer cells (MCF-7), colorectal adenocarcinoma cells (CACO-2), and fibroblast cells (BJ, a non-cancer cell line). All cell lines were cultured in 96-well plates at a seeding density of 1 × 10^4 cells per well with a specific culture medium supplemented with 10% (v/v) fetal bovine serum (FBS) and 1% (v/v) antibiotic–antimycotic solution (AA, 100× solution) at 37 °C, in a humidified atmosphere and 5% CO2. Specific cell culture media were as follows: the A2780 and A2780CisR cell lines were cultured in RPMI 1640 medium supplemented with L-glutamine (2 mM), and 1% (w/v) of cisplatin (100 mM) in the case of A2780CisR cells (cisplatin was only used in the subculturing process before the cytotoxicity assays); the MCF-7 cell line was cultured in RPMI 1640 medium supplemented with 1 mM sodium pyruvate, 1% (v/v) nonessential amino acids (NEAA, 100× solution), and human insulin 3.3 µg/mL; the CACO-2 cell line was cultured in MEM medium supplemented with 1% (v/v) NEAA; the BJ cell line was cultured in D-MEM medium. After 24 h in culture, cells were incubated with the compounds under testing prepared in nuclease-free water. In all cases, 100 µL of the compound solution was used for a total volume of 200 µL in the well. The metallodendrimers cytotoxicity was evaluated using all the mentioned cell lines at the concentrations of 0.01, 0.03, 0.1, 0.5, 1, 2.5, 5, and 10 µM. Pristine anionic PAMAM dendrimers (G0.5–3.5) were used as controls. The cytotoxicity of the metallodendrimer G2.5COO(DACHPt)16/5-FU was evaluated using A2780CisR, and CACO-2 cells at the concentrations of 0.01, 0.2, 1, 5, 10 and 20 µg/mL, and G2.5(COONa)32/5-FU and free 5-FU were used as controls. After 72 h of incubation with the compounds under testing, the culture medium was replaced by new culture medium containing 10% (v/v) of a MTT (3-(4,5-dimethylthiazol-2-yl)-2,5-diphenyltetrazolium bromide) solution (0.5 mg/mL). After 3 h of incubation, the culture medium was aspirated, and the formed formazan crystals were dissolved in 100 µL of DMSO. Absorbance intensity was measured at 550 nm in a microplate reader (Victor3 1420, Perkin Elmer, Waltham, MA, USA). Three independent experiments with three replicas each were carried out. The concentration that inhibited 50% of the cellular metabolic activity (IC50) was determined by linear interpolation between the two experimental points closer to the point correspondent to 50% of the control’s cellular metabolic activity. Results are presented as the mean ± standard deviation (SD).

Data set [2] has as its system CACO-2 colorectal adenocarcinoma cells. The data set is described as follows: MTT cytotoxicity assay, CACO-2. In kind it is cell-based, human. As to conditions: for 5-FU loaded systems MW includes the estimated number of 5-FU molecules, read-out: CACO-2 IC50 ± SD.
Procedure: All cell lines were cultured in 96-well plates at a seeding density of 1 × 10^4 cells per well with a specific culture medium supplemented with 10% (v/v) fetal bovine serum (FBS) and 1% (v/v) antibiotic–antimycotic solution (AA, 100× solution) at 37 °C, in a humidified atmosphere and 5% CO2. […] After 24 h in culture, cells were incubated with the compounds under testing prepared in nuclease-free water. In all cases, 100 µL of the compound solution was used for a total volume of 200 µL in the well. The metallodendrimers cytotoxicity was evaluated using all the mentioned cell lines at the concentrations of 0.01, 0.03, 0.1, 0.5, 1, 2.5, 5, and 10 µM. Pristine anionic PAMAM dendrimers (G0.5–3.5) were used as controls. The cytotoxicity of the metallodendrimer G2.5COO(DACHPt)16/5-FU was evaluated using A2780CisR, and CACO-2 cells at the concentrations of 0.01, 0.2, 1, 5, 10 and 20 µg/mL, and G2.5(COONa)32/5-FU and free 5-FU were used as controls. After 72 h of incubation with the compounds under testing, the culture medium was replaced by new culture medium containing 10% (v/v) of a MTT (3-(4,5-dimethylthiazol-2-yl)-2,5-diphenyltetrazolium bromide) solution (0.5 mg/mL). After 3 h of incubation, the culture medium was aspirated, and the formed formazan crystals were dissolved in 100 µL of DMSO. […] Three independent experiments with three replicas each were carried out.
The subject of the next data set is red blood cells. The experiment in a line: Hemotoxicity (hemolysis) assay, cyanmethemoglobin method. In kind it is cell-based. The following applies: human blood; for hemolysis percentage (release of hemoglobin): 3 h, 37 °C, 5 µM. The method, then: Human blood from healthy donors was collected in tubes containing EDTA and used to evaluate the compounds’ hemotoxicity under testing towards red blood cells by the cyanmethemoglobin method. The total hemoglobin concentration in the original blood was determined starting from a 250-fold dilution of blood in cyanmethemoglobin reagent (the C reagent was prepared in an amber bottle with 50 mg of potassium ferricyanide, 12.5 mg of potassium cyanide, and 35 mg of potassium dihydrogen phosphate in 250 mL of distilled water with 250 µL of Triton-X; its pH was adjusted to 7.4). A standard curve for hemoglobin was then prepared with hemoglobin from bovine blood (Figure S34). Briefly, a stock solution of the protein (1.5 mg/mL) was first prepared in C reagent, from which serial dilutions were performed to obtain standards of known concentration (in the range 0.20 to 1.4 mg/mL). Absorbance was then measured at 550 nm, and the C reagent was used as blank. The total hemoglobin concentration was determined using this standard curve, taking into consideration the initial dilution. For hemotoxicity evaluation of the compounds under testing, a 10% (v/v) blood solution was prepared in PBS (Mg^2+/Ca^2+ free). Then, 10 µL of this blood solution was added to several microtubes containing 70 µL of compound solution (at the concentrations 0.1, 1, and 5 µM); for controls, microtubes with 70 µL of distilled water (positive control) and 70 µL of PBS (negative control) were also prepared. After, the microtubes were incubated at 37 °C for 3 h and subsequently centrifuged at 3800 rpm for 10 min. In the end, 40 µL of each supernatant were transferred to 96-well plates, 160 µL of C reagent was added, and absorbance was measured at 550 nm. The concentration of hemoglobin in the supernatants was then determined using the same standard curve and considering the performed dilutions. The results are presented as a percentage of hemolysis (mean of three independent assays) ± standard deviation (SD). A Perkin Elmer VICTOR^3™ Multilabel Reader spectrophotometer was used in this assay.

The test system of a further data set is calf thymus DNA (CT-DNA). The experiment in a line: DNA binding study by UV-vis spectroscopy (Benesi-Hildebrand). As to conditions: increasing CT-DNA 0-50 µM, 5 mM Tris-HCl/50 mM NaCl pH 7.4, 5 min incubation. How it is done:
The stock solutions of DNA were directly prepared in this buffer. DNA purity was assessed by UV–vis spectroscopy using the absorbance values ratio at 260 nm and 280 nm (it should be between 1.8–1.9 to make sure it is sufficiently protein-free). […] The compounds and the CT-DNA were incubated for 5 min at room temperature. The absorbance was measured in a PerkinElmer UV–vis spectrometer Lambda equipment, using the buffer as blank. […] The intrinsic binding constant, Kb, of the compounds with DNA, was determined using the Benesi–Hildebrand equation [36]: A0/(A−A0) = εG/(εH-G − εG) + εG/(εH-G − εG) × 1/(Kb[DNA]), where Kb is the binding constant, [DNA] is the DNA concentration, A0 and A are the absorbance values of the free compound and compound–DNA complex, and εG and εH-G are their absorption coefficients, respectively. Binding constant values were then obtained from the ratio of the y-intercept to the slope in the plots A0/A−A0 vs. 1/[DNA]. Additionally, the Gibbs free energy (ΔG) associated with the process of DNA binding was calculated using the usual equation: ∆G = −RTlnKb, where T is the temperature in Kelvin and R the gas constant.

Data set [3] deals with A2780 ovarian cancer cells. The data set is described as follows: MTT cytotoxicity assay, A2780. In kind it is cell-based, human. The following applies: for IC50: MTT, 72 h, read-out: A2780 IC50 ± SD. The method, then: as §1
For orientation: Tetrazolium dyes change colour on reduction, which living cells bring about.

Data set [4] has as its system MCF-7 breast cancer cells. The experiment in a line: MTT cytotoxicity assay, MCF-7. The data set is classed as cell-based, human. The following applies: for IC50: MTT, 72 h, read-out: MCF-7 IC50 ± SD. How it is done:
as §1

Data set [5] concerns BJ fibroblast cells (non-cancer cell line). The experiment in a line: MTT cytotoxicity assay, BJ. The data set is classed as cell-based, human. As to conditions: 72 h, read-out: BJ IC50 ± SD. The method, then: Several human cell lines were used in the cytotoxicity evaluation studies, namely: ovarian cancer cells (A2780), cisplatin-resistant ovarian cancer cells (A2780CisR), breast cancer cells (MCF-7), colorectal adenocarcinoma cells (CACO-2), and fibroblast cells (BJ, a non-cancer cell line). All cell lines were cultured in 96-well plates at a seeding density of 1 × 10^4 cells per well with a specific culture medium supplemented with 10% (v/v) fetal bovine serum (FBS) and 1% (v/v) antibiotic–antimycotic solution (AA, 100× solution) at 37 °C, in a humidified atmosphere and 5% CO2. […] The metallodendrimers cytotoxicity was evaluated using all the mentioned cell lines at the concentrations of 0.01, 0.03, 0.1, 0.5, 1, 2.5, 5, and 10 µM. […] The cytotoxicity of the metallodendrimer G2.5COO(DACHPt)16/5-FU was evaluated using A2780CisR, and CACO-2 cells at the concentrations of 0.01, 0.2, 1, 5, 10 and 20 µg/mL, and G2.5(COONa)32/5-FU and free 5-FU were used as controls. […] Absorbance intensity was measured at 550 nm in a microplate reader (Victor3 1420, Perkin Elmer, Waltham, MA, USA). […]

[6] abbreviates: IC50 oxaliplatin / IC50 compound.

Turning to `O=c1[nH]cc(F)c(=O)[nH]1` [5-FU, 5-fluoro-1H-pyrimidine-2,4-dione], the IC50 was more than 154 µM in data set [1] (Homo sapiens, A2780cisR) and more than 154 µM in data set [2] (Homo sapiens, Caco-2, 72 h). In the data set on red blood cells (concentrations 0.1 and 1 µg/mL), this compound gave a hemolysis at 3 h of approximately 5%.
As to `O=C1[O][Pt]2([NH][C@@H]3CCCC[C@H]3[NH]2)[O]C1=O` [Oxaliplatin, [(1R,2R)-cyclohexane-1,2-diamine] (ethanedioato-O,O′)platinum(II)], the “Change in Absorbance” value with calf thymus DNA (CT-DNA) is given as “Hyperchromism”. Besides, the IC50 was 0.48 ± 0.03 µM in data set [3], 3.5 ± 0.5 µM in data set [1], more than 10 µM in data set [4] and more than 10 µM in data set [5]. In addition, in data set [1], the “Resistance Factor (Rf)” value is on record as 7.2. For the same compound, the “hemolysis percentage (release of hemoglobin)” value with red blood cells is reported as “around 12%”.
On to “trans-(R,R)-1,2-diaminocyclohexanedichloroplatinum(II) [DACHPtCl2]”, for which the “Change in Absorbance” value in the data set on calf thymus DNA (CT-DNA) is on record as “Hyperchromism”. For the same compound, the “Selectivity Index (SI) A2780” value in data set [3] (IC50 BJ / IC50 A2780) is recorded as more than 32. The “Relative Potency (RP) A2780” value in data set [3] (setting [6]) was 1.7. The IC50 is 0.3 ± 0.2 µM in data set [3]; 1.7 ± 0.4 µM in data set [1]; 5 ± 2 µM in data set [4]; more than 10 µM in data set [2] (72 h); more than 9 µM in data set [5]. The “Resistance Factor (Rf)” value in data set [1] was found to be 6.2. Further, the “Selectivity Index (SI) A2780CisR” value in data set [1] (IC50 BJ / IC50 A2780CisR) is given as more than 5.2. For the same compound, in data set [1] (setting [6]), the “Relative Potency (RP) A2780CisR” value is on record as 2. For the same compound, the “Selectivity Index (SI) MCF-7” value in data set [4] (IC50 BJ / IC50 MCF-7) is recorded as more than 1.7. Moreover, the “Relative Potency (RP) MCF-7” value in data set [4] (setting [6]) was more than 1.9. In addition, the “hemolysis percentage (release of hemoglobin)” value with red blood cells was 7–10%.
